According to publication PMC2806265, “Divergence of allosteric effects of rapacuronium on binding and function of muscarinic receptors” (BMC Pharmacology, 2009):
Marks after values point to notes of the source that are not given here.

Key:
M2 muscarinic receptor [1] = target: T1, M2 muscarinic receptor (Homo sapiens, UniProt P08172); experiment: [3H]ACh saturation binding; set-up: host or cells: CHO cells, stably transfected; membrane preparation
T1 sequence (P08172 1-466): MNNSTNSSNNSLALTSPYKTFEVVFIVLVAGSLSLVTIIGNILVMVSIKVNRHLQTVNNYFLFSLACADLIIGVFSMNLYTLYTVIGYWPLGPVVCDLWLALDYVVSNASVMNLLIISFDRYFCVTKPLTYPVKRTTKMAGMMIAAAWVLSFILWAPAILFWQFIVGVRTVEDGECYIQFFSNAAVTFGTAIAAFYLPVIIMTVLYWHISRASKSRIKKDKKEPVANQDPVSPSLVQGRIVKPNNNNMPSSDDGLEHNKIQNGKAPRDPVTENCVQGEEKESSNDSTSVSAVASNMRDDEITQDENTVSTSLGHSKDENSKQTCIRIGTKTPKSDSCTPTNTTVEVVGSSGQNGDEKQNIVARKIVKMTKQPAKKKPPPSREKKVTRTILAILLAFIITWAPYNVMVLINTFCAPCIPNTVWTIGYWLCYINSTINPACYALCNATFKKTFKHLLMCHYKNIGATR
Text: BMAX, maximum binding capacity; KD, equilibrium dissociation constant.

M1 muscarinic receptor = target: T2, M1 muscarinic receptor (Homo sapiens, UniProt P11229); experiment: [35S]GTPγS binding to membranes; format: biochemical; settings: for EMAX of ACh on [^35S]GTPγS binding: fold of basal
T2 construct: host or cells: CHO cells, stably transfected; membrane preparation
T2 sequence (P11229 1-460): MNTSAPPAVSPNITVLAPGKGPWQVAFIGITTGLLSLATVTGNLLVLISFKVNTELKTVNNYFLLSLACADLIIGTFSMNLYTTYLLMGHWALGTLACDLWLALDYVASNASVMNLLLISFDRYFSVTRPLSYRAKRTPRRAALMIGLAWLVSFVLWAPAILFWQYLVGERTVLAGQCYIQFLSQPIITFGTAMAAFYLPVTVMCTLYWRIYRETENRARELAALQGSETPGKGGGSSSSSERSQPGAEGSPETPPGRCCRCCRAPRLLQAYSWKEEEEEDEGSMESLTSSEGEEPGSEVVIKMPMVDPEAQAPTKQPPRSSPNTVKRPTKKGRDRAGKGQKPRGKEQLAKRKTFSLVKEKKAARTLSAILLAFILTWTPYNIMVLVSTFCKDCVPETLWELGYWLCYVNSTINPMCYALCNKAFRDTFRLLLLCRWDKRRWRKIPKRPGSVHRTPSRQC
Description: (§1) For determination of [^35S]GTPγS binding to G-proteins in membranes a final concentration of 200 pM (M1, M3 and M5 receptors) or 500 pM (M2 and M4 receptors) of [^35S]GTPγS was used. Incubation medium was supplemented with 5 μM (M1, M3 and M5 receptors) or 50 μM (M2 and M4 receptors) GDP. […] Incubation with [^35S]GTPγS was carried out for 20 min and free ligand was removed by filtration as described above. Filtration and washing with ice-cold water lasted for 9 s (wash-aspirate button time).

M4 muscarinic receptor = target: T3, M4 muscarinic receptor (Homo sapiens, UniProt P08173); experiment: [35S]GTPγS binding to membranes; format: biochemical; set-up: host or cells: CHO cells, stably transfected; membranes; settings: for EMAX of ACh on [^35S]GTPγS binding: fold of basal
T3 sequence (P08173 1-479): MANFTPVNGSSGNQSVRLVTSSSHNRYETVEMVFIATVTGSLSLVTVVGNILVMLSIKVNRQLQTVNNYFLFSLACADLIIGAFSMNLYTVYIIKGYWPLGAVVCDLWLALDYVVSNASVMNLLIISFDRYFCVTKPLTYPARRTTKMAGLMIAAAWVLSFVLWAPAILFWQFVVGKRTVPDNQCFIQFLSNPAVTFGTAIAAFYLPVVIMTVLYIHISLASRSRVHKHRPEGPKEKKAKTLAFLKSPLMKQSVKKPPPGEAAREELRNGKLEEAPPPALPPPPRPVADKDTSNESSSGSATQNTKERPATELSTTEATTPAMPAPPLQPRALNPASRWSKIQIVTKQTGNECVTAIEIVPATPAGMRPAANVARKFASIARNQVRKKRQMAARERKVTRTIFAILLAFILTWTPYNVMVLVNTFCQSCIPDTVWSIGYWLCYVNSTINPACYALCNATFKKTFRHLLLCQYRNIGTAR
Description: as §1

M2 muscarinic receptor [2] = target: T1, M2 muscarinic receptor; experiment: Effect of rapacuronium on high-affinity 20 nM [3H]ACh binding; set-up: host or cells: CHO cells, stably transfected; membrane preparation
Text: Cooperativity factor greater than 1 denotes negative cooperativity and less than 1 positive cooperativity. Due to its log-normal error distribution factors of cooperativity are expressed as negative logarithms (pα) through the manuscript so negative values denotes negative cooperativity and positive value denotes positive cooperativity.

M2 muscarinic receptor [3] = target: T1, M2 muscarinic receptor; experiment: [3H]NMS saturation binding
M5 muscarinic receptor = target: T4, M5 muscarinic receptor (Homo sapiens, UniProt P08912); experiment: [3H]NMS dissociation
T4 sequence (P08912 1-532): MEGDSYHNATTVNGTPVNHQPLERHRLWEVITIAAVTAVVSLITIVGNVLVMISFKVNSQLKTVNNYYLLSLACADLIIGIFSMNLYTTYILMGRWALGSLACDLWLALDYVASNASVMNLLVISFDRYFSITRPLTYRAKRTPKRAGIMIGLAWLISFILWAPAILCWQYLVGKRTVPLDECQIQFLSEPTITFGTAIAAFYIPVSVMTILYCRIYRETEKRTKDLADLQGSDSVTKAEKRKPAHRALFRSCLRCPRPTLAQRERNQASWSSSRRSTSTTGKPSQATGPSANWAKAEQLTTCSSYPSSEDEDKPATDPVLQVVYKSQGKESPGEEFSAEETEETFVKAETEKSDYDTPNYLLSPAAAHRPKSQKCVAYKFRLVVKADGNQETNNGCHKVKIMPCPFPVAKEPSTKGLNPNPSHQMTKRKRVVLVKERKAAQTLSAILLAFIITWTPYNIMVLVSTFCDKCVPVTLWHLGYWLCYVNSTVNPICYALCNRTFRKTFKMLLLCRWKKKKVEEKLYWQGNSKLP
Text: y, radioligand binding at time x normalized to binding at time 0; koff1 and koff2, dissociation rate constants; f2, fraction of binding site with dissociation rate constant koff2. When both Eq. 7a and 7b were fitted to data the better fit was chosen based on sum of squares F-test and runs test.

M3 muscarinic receptor = target: T5, M3 muscarinic receptor (Homo sapiens, UniProt P20309); experiment: Effect of rapacuronium on low-affinity ACh binding ([3H]NMS + GTPγS + ACh)
T5 construct: host or cells: CHO cells, stably transfected; membranes
Text: Data are expressed as percent of specific binding in the absence of rapacuronium. […] Data are means ± SE from 3 independent experiments performed in quadruplicates. Curves are fits of Eq. 3 (circles) and Eq. 4 (squares and triangles) to data prior to normalization.

[4] = system: M1 to M5 muscarinic receptors; experiment: [35S]GTPγS binding, statements over several subtypes; settings: rapacuronium alone
Description: as §1

[5] = read-out: pKA of rapacuronium (converted)

T5 sequence (P20309 whole entry): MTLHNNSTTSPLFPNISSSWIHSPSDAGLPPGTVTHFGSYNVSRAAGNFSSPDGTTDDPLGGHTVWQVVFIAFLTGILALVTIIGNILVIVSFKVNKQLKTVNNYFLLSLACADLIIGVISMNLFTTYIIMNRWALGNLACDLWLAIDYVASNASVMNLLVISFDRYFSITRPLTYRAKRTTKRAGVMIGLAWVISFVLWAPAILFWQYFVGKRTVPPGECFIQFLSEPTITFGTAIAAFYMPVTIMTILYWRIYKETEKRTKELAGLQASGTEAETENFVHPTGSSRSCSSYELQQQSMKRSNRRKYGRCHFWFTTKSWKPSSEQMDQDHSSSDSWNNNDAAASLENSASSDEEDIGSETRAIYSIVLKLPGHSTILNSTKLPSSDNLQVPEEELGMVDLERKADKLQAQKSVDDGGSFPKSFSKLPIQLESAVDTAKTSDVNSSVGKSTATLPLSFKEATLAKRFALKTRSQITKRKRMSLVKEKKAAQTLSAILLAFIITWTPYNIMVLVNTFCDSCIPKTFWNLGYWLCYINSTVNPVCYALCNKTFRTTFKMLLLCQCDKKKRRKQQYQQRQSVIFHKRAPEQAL

**Q.** Which results are given for `C=CC[N+]1([C@H]2C[C@H]3[C@@H]4CC[C@H]5C[C@H](OC(C)=O)[C@@H](N6CCCCC6)C[C@]5(C)[C@H]4CC[C@]3(C)[C@H]2OC(=O)CC)CCCCC1` [rapacuronium]?
**A.** BMAX of [^3H]ACh (M2 muscarinic receptor [1]; + 10 μM rapacuronium): 0.74 ± 0.07 fmol/μg of protein; BMAX of [^3H]ACh (M2 muscarinic receptor [1]; + 100 μM rapacuronium): 0.77 ± 0.08 fmol/μg of protein; decrease in ACh EC50 (M1 muscarinic receptor; 0.1 μM rapacuronium): 1.5 fold; decrease in ACh EC50 (M1 muscarinic receptor; 1 μM rapacuronium): 4 fold; EMAX of ACh on [^35S]GTPγS binding (M1 muscarinic receptor; + 0.1 μM rapacuronium): 2.35 ± 0.12; EMAX of ACh on [^35S]GTPγS binding (M1 muscarinic receptor; + 1 μM rapacuronium): 2.28 ± 0.12; EMAX of ACh on [^35S]GTPγS binding (M1 muscarinic receptor; + 10 μM rapacuronium): 2.27 ± 0.11; EMAX of rapacuronium on [^35S]GTPγS binding (M1 muscarinic receptor; rapacuronium alone, normalized to absence of rapacuronium): 0.76 ± 0.08; EC50 (M1 muscarinic receptor; rapacuronium alone, read-out: pEC50 of rapacuronium on [^35S]GTPγS binding (converted)): 50.1 µM; EC50 (M4 muscarinic receptor): 36.3 µM; EMAX of ACh on [^35S]GTPγS binding (M4 muscarinic receptor; M4, + 0.1 μM rapacuronium): 2.95 ± 0.11; EMAX of ACh on [^35S]GTPγS binding (M4 muscarinic receptor; M4, + 1 μM rapacuronium): 2.80 ± 0.12; EMAX of ACh on [^35S]GTPγS binding (M4 muscarinic receptor; M4, + 10 μM rapacuronium): 2.32 ± 0.16; EMAX of rapacuronium on [^35S]GTPγS binding (M4 muscarinic receptor; M4, rapacuronium alone, normalized to absence of rapacuronium): 0.86 ± 0.06; pα, cooperativity with [^3H]ACh high affinity binding (M2 muscarinic receptor [2]; M2, negative value = negative cooperativity): -1.46 ± 0.08; Kd (M2 muscarinic receptor [2]; [5]): 2.82 µM; BMAX of [^3H]NMS (M2 muscarinic receptor [3]; + 10 μM rapacuronium): 1.62 ± 0.14 fmol/μg of protein; BMAX of [^3H]NMS (M2 muscarinic receptor [3]; + 100 μM rapacuronium): 1.66 ± 0.14 fmol/μg of protein; decrease in rate of [^3H]NMS dissociation (M5 muscarinic receptor; 100 μM rapacuronium): 40%; koff1 of [^3H]NMS dissociation (M5 muscarinic receptor; + 100 μM rapacuronium, monophasic): 0.0078 ± 0.0004* min^-1; decrease in ACh low-affinity binding (cooperativity) (M3 muscarinic receptor; M3): 16 fold; pβ, cooperativity with ACh low affinity binding (M3 muscarinic receptor; M3, negative value = negative cooperativity): -1.20 ± 0.07; Kd (M3 muscarinic receptor; [5]): 17 µM; maximal lowering of [^35S]GTPγS binding ([4]; even-numbered subtypes): ~15%; maximal lowering of [^35S]GTPγS binding ([4]; odd-numbered subtypes): approximately 25%
